Values of other authors, collected in US20210121480A1, “STABLE PHARMACEUTICAL COMPOSITIONS CONTAINING ESTRADIOL AND PROGESTERONE FOR ORAL ADMINISTRATION” (SLAYBACK PHARMA LLC, priority 2019, published 2021).
Converted amounts (≈) assume the structure as drawn.

Conditions: reported

SMILES: CC(=O)[C@H]1CC[C@H]2[C@@H]3CCC4=CC(=O)CC[C@]4(C)[C@H]3CC[C@]12C [Progesterone]
- aqueous solubility: 7 ± 0 µg/mL (≈ 22.3 µM)
